Measurements as given in PubChem BioAssay AID330 (DTP/NCI, 2004).
Where “and” joins values, the source holds several entries; their conditions need not be identical. Equal values may be shown once. Toxic doses and inconclusive results are not listed.

Test system: P388 leukemia ip, CD2F1 mice, survival T/C
Test: NCI In Vivo Anticancer Drug Screen. Data for tumor model P388 Leukemia (intraperitoneal) in CD2F1 (CDF1) mice
Conditions: endpoint: median survival time, higher = longer survival
Procedure, shortened: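 Mice carrying the transplanted tumor received test compound or vehicle. Survival was recorded in each group, and the value is the treated-group measurement divided by that of the vehicle-treated control group.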

[1] = dose: 25.0 mg/kg/injection, schedule: Q01DX009 (ip), vehicle: saline with Tween-80
[2] = dose: 50.0 mg/kg/injection, schedule: Q01DX009 (ip), vehicle: saline with Tween-80
[3] = dose: 100.0 mg/kg/injection, schedule: Q01DX009 (ip), vehicle: saline with Tween-80
[4] = dose: 12.5 mg/kg/injection, schedule: Q01DX009 (ip), vehicle: saline
[5] = dose: 25.0 mg/kg/injection, schedule: Q01DX009 (ip), vehicle: saline
[6] = dose: 50.0 mg/kg/injection, schedule: Q01DX009 (ip), vehicle: saline
[7] = dose: 100.0 mg/kg/injection, schedule: Q01DX001 (ip), vehicle: Klucel (hydroxypropylcellulose) (HPC)
[8] = dose: 200.0 mg/kg/injection, schedule: Q01DX001 (ip), vehicle: Klucel (hydroxypropylcellulose) (HPC)
[9] = dose: 50.0 mg/kg/injection, schedule: Q01DX005 (ip), vehicle: saline with Tween-80
[10] = dose: 100.0 mg/kg/injection, schedule: Q01DX005 (ip), vehicle: saline with Tween-80
[11] = dose: 200.0 mg/kg/injection, schedule: Q01DX005 (ip), vehicle: saline with Tween-80
[12] = dose: 50.0 mg/kg/injection, schedule: Q01DX009 (ip), vehicle: Klucel (hydroxypropylcellulose) (HPC)
[13] = dose: 100.0 mg/kg/injection, schedule: Q01DX009 (ip), vehicle: Klucel (hydroxypropylcellulose) (HPC)
[14] = dose: 200.0 mg/kg/injection, schedule: Q01DX009 (ip), vehicle: Klucel (hydroxypropylcellulose) (HPC)
[15] = dose: 7.5 mg/kg/injection, schedule: Q01DX005 (ip), vehicle: saline with Tween-80
[16] = dose: 100.0 mg/kg/injection, schedule: Q01DX009 (ip), vehicle: saline
[17] = dose: 200.0 mg/kg/injection, schedule: Q01DX009 (ip), vehicle: saline
[18] = dose: 60.0 mg/kg/injection, schedule: Q01DX005 (ip), vehicle: Klucel (hydroxypropylcellulose) (HPC)
[19] = dose: 120.0 mg/kg/injection, schedule: Q01DX005 (ip), vehicle: Klucel (hydroxypropylcellulose) (HPC)
[20] = dose: 240.0 mg/kg/injection, schedule: Q01DX005 (ip), vehicle: Klucel (hydroxypropylcellulose) (HPC)
[21] = dose: 60.0 mg/kg/injection, schedule: Q01DX005 (ip), vehicle: saline with Tween-80
[22] = dose: 120.0 mg/kg/injection, schedule: Q01DX005 (ip), vehicle: saline with Tween-80
[23] = dose: 240.0 mg/kg/injection, schedule: Q01DX005 (ip), vehicle: saline with Tween-80

SMILES: CCOC(=O)N1C(=O)c2ccccc2C1=O
- T/C [1]: 110 % of control
- T/C (dose: 25.0 mg/kg/injection, schedule: Q04DX003 (ip), vehicle: saline with Tween-80): 115 % of control
- T/C [2]: 105 % of control
- T/C (dose: 50.0 mg/kg/injection, schedule: Q04DX003 (ip), vehicle: saline with Tween-80): 110 % of control
- T/C [3]: 100 % of control
- T/C (dose: 100.0 mg/kg/injection, schedule: Q04DX003 (ip), vehicle: saline with Tween-80): 120 % of control

SMILES: COc1c(OC)c(OC)c(-c2cc(=O)c3c(OC)cccc3o2)c(OC)c1OC
- T/C (dose: 25.0 mg/kg/injection, schedule: Q01DX005 (ip), vehicle: distilled water + Tween-80 + alcohol): 102 % of control
- T/C (dose: 50.0 mg/kg/injection, schedule: Q01DX005 (ip), vehicle: distilled water + Tween-80 + alcohol): 96 % of control
- T/C (dose: 100.0 mg/kg/injection, schedule: Q01DX005 (ip), vehicle: distilled water + Tween-80 + alcohol): 95 % of control

SMILES: Cc1[c-]onc1C.Cc1[c-]onc1C.[Ag].[Ag].[NH-]S(=O)(=O)c1ccc(N=Nc2cc(N=Nc3ccc(S([NH-])(=O)=O)cc3)c3c(NC(=O)C(Cl)Cl)cccc3c2OC(=O)C(Cl)Cl)cc1
- T/C (dose: 3.13 mg/kg/injection, schedule: Q01DX009 (ip), vehicle: saline with Tween-80): 91 % of control
- T/C (dose: 6.25 mg/kg/injection, schedule: Q01DX009 (ip), vehicle: saline with Tween-80): 89 % of control
- T/C [1]: 89 % of control
- T/C [2]: 99 % of control

SMILES: O=N[O-].O=N[O-].[Co].[NH-]CC[N-]CCO.[NH-]CC[N-]CCO
- T/C (dose: 6.25 mg/kg/injection, schedule: Q01DX009 (ip), vehicle: saline): 95 % of control
- T/C [4]: 99 % of control
- T/C [5]: 94 % of control
- T/C [6]: 95 % of control

SMILES: CC1=C(c2ccccc2)C(=O)OC1(c1ccccc1)c1ccccc1
- T/C (dose: 50.0 mg/kg/injection, schedule: Q01DX001 (ip), vehicle: Klucel (hydroxypropylcellulose) (HPC)): 91 % of control
- T/C [7]: 88 % of control
- T/C [8]: 89 % of control

SMILES: CCOC(=O)c1cc(=O)c2c(OC)ccc(OC)c2[nH]1
- T/C [9]: 90 % of control
- T/C [10]: 98 % of control
- T/C [11]: 97 % of control

SMILES: COC1/C=C\OC2(C)Oc3c(C)c(O)c4c(O)c(c5sc(N)nc5c4c3C2=O)NC(=O)/C(C)=C\C=C\C(C)C(O)C(C)C(O)C(C)C(OC(C)=O)C1C (stereo unspecified)
- T/C (dose: 25.0 mg/kg/injection, schedule: Q01DX009 (ip), vehicle: Klucel (hydroxypropylcellulose) (HPC)): 100 % of control
- T/C [12]: 102 % of control
- T/C [13]: 100 % of control
- T/C [14]: 100 % of control

SMILES: CN(C)CC(C)(CN(C)C)C(=O)/C=C/c1ccc(Cl)c(Cl)c1
- T/C (dose: 1.88 mg/kg/injection, schedule: Q01DX005 (ip), vehicle: saline with Tween-80): 118 % of control
- T/C (dose: 3.75 mg/kg/injection, schedule: Q01DX005 (ip), vehicle: saline with Tween-80): 110 % of control
- T/C [15]: 102 % of control and 110 % of control

SMILES: Cc1cc[n+](CC(N)=O)cc1
- T/C [4]: 96 % of control
- T/C [5]: 94 % of control
- T/C [6]: 96 % of control

SMILES: COc1cc2c(cc1OC)[C@@H](CO)[C@H]1c3cc4c(cc3CCN1C2)OCO4
- T/C (dose: 50.0 mg/kg/injection, schedule: Q04DX003 (ip), vehicle: distilled water + Tween-80): 106 % of control and 115 % of control
- T/C (dose: 100.0 mg/kg/injection, schedule: Q04DX003 (ip), vehicle: distilled water + Tween-80): 100 % of control and 98 % of control
- T/C (dose: 200.0 mg/kg/injection, schedule: Q04DX003 (ip), vehicle: distilled water + Tween-80): 105 % of control and 120 % of control

SMILES: CC1(C)OCC(N)(CO)CO1
- T/C [6]: 107 % of control
- T/C [16]: 102 % of control
- T/C [17]: 98 % of control
- T/C (dose: 400.0 mg/kg/injection, schedule: Q01DX009 (ip), vehicle: saline): 98 % of control

SMILES: CN1CCN(CCCN2CC(=O)N3Cc4ccccc4CN3C(=O)C2)CC1
- T/C (dose: 50.0 mg/kg/injection, schedule: Q01DX005 (ip), vehicle: saline): 102 % of control
- T/C (dose: 100.0 mg/kg/injection, schedule: Q01DX005 (ip), vehicle: saline): 102 % of control
- T/C (dose: 200.0 mg/kg/injection, schedule: Q01DX005 (ip), vehicle: saline): 103 % of control

SMILES: CCN(CC)C(=O)c1cncc(C(N)=O)c1
- T/C [18]: 110 % of control
- T/C [19]: 111 % of control
- T/C [20]: 101 % of control

SMILES: CCOC(=O)N(C)N=NCCCl
- T/C [15]: 117 % of control
- T/C (dose: 15.0 mg/kg/injection, schedule: Q01DX005 (ip), vehicle: saline with Tween-80): 118 % of control
- T/C (dose: 30.0 mg/kg/injection, schedule: Q01DX005 (ip), vehicle: saline with Tween-80): 175 % of control
- T/C [21]: 94 % of control

SMILES: C=CCN1C(=O)CS/C1=N\NC(=O)Cc1nc2ccccc2[nH]1
- T/C [7]: 101 % of control
- T/C [8]: 105 % of control
- T/C (dose: 400.0 mg/kg/injection, schedule: Q01DX001 (ip), vehicle: Klucel (hydroxypropylcellulose) (HPC)): 92 % of control

SMILES: c1ccc(-c2n[nH]c(-c3[nH]nc(-c4ccccc4)c3-c3ccccc3)c2-c2ccccc2)cc1
- T/C [21]: 100 % of control
- T/C [22]: 103 % of control
- T/C [23]: 101 % of control

SMILES: COC(=O)c1csc(-c2csc(CCNC(=O)c3ccccc3)n2)n1
- T/C (dose: 100.0 mg/kg/injection, schedule: Q04DX002 (ip), vehicle: saline with Tween-80): 93 % of control
- T/C (dose: 200.0 mg/kg/injection, schedule: Q04DX002 (ip), vehicle: saline with Tween-80): 95 % of control
- T/C (dose: 400.0 mg/kg/injection, schedule: Q04DX002 (ip), vehicle: saline with Tween-80): 96 % of control

SMILES: C[N+](C)(C)CCCOC1=Nc2ccccc2O/C1=C/c1ccccc1
- T/C (dose: 3.12 mg/kg/injection, schedule: Q01DX009 (ip), vehicle: Klucel (hydroxypropylcellulose) (HPC)): 96 % of control
- T/C (dose: 6.25 mg/kg/injection, schedule: Q01DX009 (ip), vehicle: Klucel (hydroxypropylcellulose) (HPC)): 92 % of control
- T/C (dose: 12.5 mg/kg/injection, schedule: Q01DX009 (ip), vehicle: Klucel (hydroxypropylcellulose) (HPC)): 98 % of control and 104 % of control

SMILES: CC(=O)N(O)c1ccc(S(N)(=O)=O)cc1
- T/C [2]: 113 % of control
- T/C [3]: 100 % of control
- T/C (dose: 200.0 mg/kg/injection, schedule: Q01DX009 (ip), vehicle: saline with Tween-80): 98 % of control

SMILES: O=C1CS/C(=C/Cc2nc3ccccc3s2)N1
- T/C [21]: 108 % of control
- T/C [22]: 97 % of control
- T/C [23]: 102 % of control

SMILES: CN1C(=O)C(CC(=O)O)NC1=S (stereo unspecified)
- T/C (dose: 60.0 mg/kg/injection, schedule: Q01DX005 (ip), vehicle: saline): 101 % of control
- T/C (dose: 120.0 mg/kg/injection, schedule: Q01DX005 (ip), vehicle: saline): 103 % of control
- T/C (dose: 240.0 mg/kg/injection, schedule: Q01DX005 (ip), vehicle: saline): 104 % of control

SMILES: Oc1cc2c(cc1C(c1ccc(F)cc1)n1ccnc1)OCO2 (stereo unspecified)
- T/C [18]: 96 % of control
- T/C [19]: 94 % of control
- T/C [20]: 91 % of control

SMILES: CC(=O)OC(C(=O)CCl)C(OC(C)=O)C(OC(C)=O)C(=O)CCl (stereo unspecified)
- T/C (dose: 12.5 mg/kg/injection, schedule: Q01DX009 (ip), vehicle: distilled water + Tween-80 + alcohol): 93 % of control
- T/C (dose: 25.0 mg/kg/injection, schedule: Q01DX009 (ip), vehicle: distilled water + Tween-80 + alcohol): 101 % of control
- T/C (dose: 50.0 mg/kg/injection, schedule: Q01DX009 (ip), vehicle: distilled water + Tween-80 + alcohol): 100 % of control

SMILES: CC(/C=C/c1ccc(C)cc1)=N\NC(N)=O
- T/C [9]: 103 % of control
- T/C [10]: 102 % of control
- T/C [11]: 93 % of control

SMILES: Cc1cccc(N=Nc2ccc(N=Nc3c(O)ccc4ccccc34)cc2C)c1
- T/C [12]: 97 % of control
- T/C [13]: 100 % of control
- T/C [14]: 100 % of control

SMILES: CSCCC(NC(C)=O)C(C)=O (stereo unspecified)
- T/C [6]: 110 % of control
- T/C [16]: 109 % of control
- T/C [17]: 105 % of control
